Source: patent publication US8389523B2, “Substituted quinoxaline and an agrochemical composition thereof” (Kumiai Chemical Industry Co., Ltd., priority 2007, dated 2013)

Legend:
Type in all cases: in vivo
Parameters in all cases: scale not given here
[1] = system: Amaranthus viridis L.; test: Herbicidal effects in upland field soil treatment (Test Example 2); settings: 1000 g active ingredient per hectare, 21st day after treatment, criteria of Table 138
Summary of the method: (§1)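 Soil-applied before emergence at 1000 g a.i./ha as water-diluted wettable powder; greenhouse-grown plants rated for herbicidal damage 21 days post-treatment.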

[2] = system: Abutilon theophrasti medicus; test: as above; settings: 1000 g active ingredient per hectare, 21st day after treatment, criteria of Table 138
Summary of the method: as §1

[3] = system: Echinochloa oryzicola Vasing; test: Herbicidal effects in paddy field soil treatment (Test Example 1); settings: for Herbicidal effects index, Echinochloa oryzicola Vasing: paddy field soil treatment, 1000 g of the active ingredient per hectare, wettable powder added dropwise on water surface, 21st day after treatment
Summary of the method: (§2)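 Flooded-paddy soil treatment under greenhouse conditions: a diluted wettable powder at 1000 g a.i./ha went onto the water surface one day post-sowing, with 3 cm standing water, and weed control was graded on a scoring scale 21 days after treatment.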

[4] = system: Monochoria vaginalis (Burm. f.) Presl var. plantaginea (Roxb.) Solms-Laub.; test: as above; settings: for Herbicidal effects index, Monochoria vaginalis (Burm. f.) Presl var. plantaginea (Roxb.) Solms-Laub.: paddy field soil treatment, 1000 g of the active ingredient per hectare, wettable powder added dropwise on water surface, 21st day after treatment
Summary of the method: as §2

[5] = system: Scirpus juncoides Roxb. var. ohwianus. T. Koyama; test: as above; settings: for Herbicidal effects index, Scirpus juncoides Roxb. var. ohwianus. T. Koyama: paddy field soil treatment, 1000 g of the active ingredient per hectare, wettable powder added dropwise on water surface, 21st day after treatment
Summary of the method: as §2

[6] = system: Echinochloa crus-galli (L.) P. Beauv. var. crus-galli; test: Herbicidal effects in upland field foliar treatment (Test Example 3); settings: criteria of Table 138; for herbicidal effect (index) on Echinochloa crus-galli (L.) P. Beauv. var. crus-galli: 1000 g active ingredient per hectare, 14th day after treatment; for herbicidal effects on Echinochloa crus-galli (L.) P. Beauv. var. crus-galli: 1000 g of the active ingredient per hectare, 14th day after the treatment, wettable powder
Summary of the method: (§3)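 Post-emergence foliar treatment: two-week-old seedlings from upland field soil received 1000 g a.i./ha (wettable powder, 1000 L water/ha), then returned to the greenhouse for scoring 14 days later.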

[7] = system: Amaranthus viridis L.; test: as above; settings: criteria of Table 138; for herbicidal effect (index) on Amaranthus viridis L.: 1000 g active ingredient per hectare, 14th day after treatment; for herbicidal effects on Amaranthus viridis L.: 1000 g of the active ingredient per hectare, 14th day after the treatment, wettable powder
Summary of the method: as §3

[8] = system: Abutilon theophrasti medicus; test: as above; settings: criteria of Table 138; for herbicidal effect (index) on Abutilon theophrasti medicus: 1000 g active ingredient per hectare, 14th day after treatment; for herbicidal effects on Abutilon theophrasti medicus: 1000 g of the active ingredient per hectare, 14th day after the treatment, wettable powder
Summary of the method: as §3

[9] = paddy field soil treatment (Test Example 1), criteria of Table 138

| Structure (SMILES) | herbicidal effect (index) on Amaranthus viridis L. [1] | herbicidal effect (index) on Abutilon theophrasti medicus [2] | Herbicidal effects index, Echinochloa oryzicola Vasing [3] | Herbicidal effects index, Monochoria vaginalis (Burm. f.) Presl var. plantaginea (Roxb.) Solms-Laub. [4] | Herbicidal effects index, Scirpus juncoides Roxb. var. ohwianus. T. Koyama [5] | herbicidal effect (index) on Echinochloa crus-galli (L.) P. Beauv. var. crus-galli [6] | herbicidal effect (index) on Amaranthus viridis L. [7] | herbicidal effect (index) on Abutilon theophrasti medicus [8] | herbicidal effects on Echinochloa crus-galli (L.) P. Beauv. var. crus-galli [6] | herbicidal effects on Amaranthus viridis L. [7] | herbicidal effects on Abutilon theophrasti medicus [8] | herbicidal effect (index) on Echinochloa oryzicola Vasing [3, 9] | herbicidal effect (index) on Monochoria vaginalis (Burm. f.) Presl var. plantaginea (Roxb.) Solms-Laub. [4, 9] | herbicidal effect (index) on Scirpus juncoides Roxb. var. ohwianus. T. Koyama [5, 9] |
| --- | --- | --- | --- | --- | --- | --- | --- | --- | --- | --- | --- | --- | --- | --- |
| Cc1cnc(-n2c(=O)c(C(=O)C3=C(O)CCCC3=O)nc3ccccc32)cn1 [I-373] | 5 | 5 | 5 | 5 | 5 | 5 | 5 | 5 |  |  |  |  |  |  |
| Cc1cccc(-n2c(=O)c(C(=O)C3=C(O)CCCC3=O)nc3ccccc32)n1 [I-173, 3-(2-hydroxy-6-oxo-1-cyclohexenecarbonyl)-1-(6-methyl-2-pyridyl)-quinoxalin-2 (1H)-one] | 5 | 5 | 5 | 5 | 5 | 5 | 5 | 5 |  |  |  |  |  |  |
| O=C1CCCC(O)=C1C(=O)c1nc2cccnc2n(-c2ccc(F)cc2)c1=O [IV-8] | 5 | 5 | 5 | 5 | 5 |  |  |  | 5 | 5 | 5 |  |  |  |
| O=C1CCCC(O)=C1C(=O)c1nc2cccc(F)c2n(-c2ccccc2)c1=O [II-243] | 5 | 5 | 5 | 5 | 5 |  |  |  | 5 | 5 | 5 |  |  |  |
| O=C1CCCC(O)=C1C(=O)c1nc2ccccc2n(-c2cccc(C(F)(F)F)c2)c1=O [II-39] | 5 | 5 | 5 | 5 | 5 |  |  |  | 5 | 5 | 5 |  |  |  |
| CC1COc2cc(-n3c(=O)c(C(=O)C4=C(O)CCCC4=O)nc4ccccc43)ccc2O1 (stereo not shown) [II-231] | 5 | 4 | 5 | 5 | 5 |  |  |  | 5 | 5 | 5 |  |  |  |
| Cc1ccc(-n2c(=O)c(C(=O)C3=C(O)CCCC3=O)nc3ccccc32)c(F)c1 [II-212] | 5 | 5 | 5 | 5 | 5 |  |  |  | 5 | 5 | 5 |  |  |  |
| Cn1c(=O)c(C(=O)C2=C(O)CCCC2=O)nc2cccnc21 [III-2] | 5 | 5 | 5 | 5 | 5 |  |  |  | 5 | 5 | 5 |  |  |  |
| O=C1CCCC(O)=C1C(=O)c1nc2ccccc2n(-c2ccccc2F)c1=O [II-6] | 5 | 5 | 5 | 5 | 5 | 5 | 5 | 5 |  |  |  |  |  |  |
| COc1ccc(-n2c(=O)c(C(=O)C3=C(O)CCCC3=O)nc3cc(F)c(OC)cc32)cc1 [II-263] | 5 | 4 | 5 | 5 | 5 |  |  |  | 5 | 5 | 4 |  |  |  |
| COc1ccc(-n2c(=O)c(C(=O)C3=C(O)CCCC3=O)nc3ccccc32)nc1 [I-180] | 5 | 5 | 4 | 5 | 5 | 4 | 5 | 5 |  |  |  |  |  |  |
| Cc1ccc(-n2c(=O)c(C(=O)C3=C(O)CCCC3=O)nc3cccnc32)cc1F [IV-222, 4-(3-fluoro-4-methylphenyl)-2-(2-hydroxy-6-oxo-1-cyclohexenecarbonyl)-pyrido[2,3-b]pyrazin-3 (4H)-one] | 5 | 5 |  |  |  |  |  |  | 5 | 5 | 5 | 5 | 5 | 5 |
| CCn1c(=O)c(C(=O)C2=C(O)CCCC2=O)nc2ccccc21 [Compound I-7] | 5 | 5 | 5 | 5 | 5 | 4 | 5 | 5 |  |  |  |  |  |  |
| O=C1CCCC(O)=C1C(=O)c1nc2cccnc2n(-c2cccc(Br)c2)c1=O [IV-17] | 5 | 5 | 5 | 5 | 5 |  |  |  | 5 | 5 | 5 |  |  |  |
